Reference: publication PMC7150977, “Regional Intestinal Drug Permeability and Effects of Permeation Enhancers in Rat” (Pharmaceutics, 2020)
Where two headings read alike, the source gives them in different places.

Columns and labels:
jejunum and colon [1] = assay: Regional comparison (jejunum vs colon, pH 6.5 vs 7.4) of Peff in rat SPIP; assay type: in vivo; details: plasma appearance
Experimental: The ratio was compared using the paired student’s t-test with the Benjamini–Hochberg multiple t-test correction. Multiple comparisons between groups were performed using a two-way ANOVA with a post-hoc Holm–Sidak multiple comparison test. Log transformation of values was performed when the original measured data were heteroscedastic and not normally distributed; this was investigated using the Bartlett test. Differences were considered to be statistically significant for p-values < than 0.05.

[2] = First-pass extraction (Ffirstpass) in rat intestine and liver; assay type: in vivo; details: based on literature data, iv plasma CL and liver blood flow 47 mL/min/kg
colon [3] = details: control solutions, mean ±SD, n = 38
Experimental: A linear regression analysis of the plasma samples was made to obtain a corresponding plasma value for each perfusate sample. The blood-to-lumen CLCr-EDTA was calculated using Equation (1) [16]. (1) CLCr−EDTA=Cperfusate × Qin/Cplasma × tissue weight ×100 where Cperfusate and Cplasma is the activity in the perfusate and plasma (cpm/mL), and Qin is the flow rate (mL/min). CLCr-EDTA was determined during the last 45 min for the control solution and during the last 60 min for the test solutions, of which the first 15 min of each period were for equilibration.

jejunum [4] = assay: Rat single-pass intestinal perfusion (SPIP), jejunal lumen-to-blood Peff from plasma appearance; assay type: in vivo; details: 100 µM, mean ±SD, n = 6
jejunum [5] = system: jejunum; design: method as in PMID 31201856; details: rat jejunum SPIP, cited from earlier work
jejunum and colon [6] = details: human study; cited from earlier work
colon [7] = details: male, Han Wistar, rat, in vivo, 60 min, 100 µM
[8] = design: method as in PMID 9836611; details: n-octanol-water; cited from earlier work
intestine [9] = details: pH 6.5, rat SPIP model; cited from earlier work
intestine [10] = details: pH 6.5, human SPIP model; cited from earlier work
[11] = design: method as in patent wo2012080471, 6; details: dog, oral with permeation enhancer; ref patent wo2012080471, 6; cited from earlier work
[12] = Jejunum pH 6.5, control solution
[13] = Jejunum pH 7.4, control solution

CC(C)NCC(O)COc1ccc(CC(N)=O)cc1 (centres unmarked) [Atenolol, atenolol]
difference in jejunal and colonic basal Peff (jejunum and colon [1]): no differences
Ffirstpass (first-pass extraction compensation value) [2]: 1.0

O=C([O-])CN(CCN(CC(=O)[O-])CC(=O)[O-])CC(=O)[O-].[51Cr+3] [Cr-EDTA, ^51chromium-labeled ethylenediaminetetraacetate]
colonic CLCr-EDTA (blood-to-lumen clearance) (colon [3]): 0.038 ± 0.050 mL/min/100 g

C[C@H](N[C@@H](CCc1ccccc1)C(=O)O)C(=O)N1CCC[C@H]1C(=O)O [Enalaprilat, enalaprilat]
Plasma Appearance Peff (jejunum [4]; [12]): 0.005 ± 0.004 ×10^–4 cm/s
Plasma Appearance Peff (jejunum [4]; [13]): 0.004 ± 0.001 ×10^–4 cm/s
difference in jejunal and colonic basal Peff (jejunum and colon [1]): no differences
permeability from luminal disappearance compared to plasma appearance (times higher) (jejunum [5]; same rat): > 10 times

CC(C(=O)O)c1cccc(C(=O)c2ccccc2)c1 (centres unmarked) [Ketoprofen, ketoprofen]
difference between permeability from luminal disappearance and plasma appearance (jejunum [5]): no differences
difference between permeability from luminal disappearance and plasma appearance (jejunum and colon [6]): no differences

COCCc1ccc(OCC(O)CNC(C)C)cc1 (centres unmarked) [Metoprolol, metoprolol]
Plasma Appearance Peff (jejunum [4]; [12]): 0.28 ± 0.24 ×10^–4 cm/s
Plasma Appearance Peff (jejunum [4]; [13]): 0.17 ± 0.095 ×10^–4 cm/s
Ffirstpass (first-pass extraction compensation value) [2]: 0.22
Plasma Appearance Peff (colon [7]; pH 6.5): 0.41 ± 0.19 ×10^–4 cm/s
Plasma Appearance Peff (colon [7]; pH 7.4): 0.38 ± 0.15 ×10^–4 cm/s
Log P [8]: 2.07
difference between permeability from luminal disappearance and plasma appearance (jejunum [5]): no differences
difference between permeability from luminal disappearance and plasma appearance (jejunum and colon [6]): no differences

CCCCCCCCCC(=O)[O-].[Na+] [caprate, sodium caprate]
permeation enhancing effect (intestine [9]): no permeation enhancing effect
permeation enhancing effect (intestine [10]): no permeation enhancing effect

semaglutide
bioavailability [11]: 0.29 % of the oral dose
